The values that follow come from patent US7256012B2, “Fluorogenic protease substrates based on dye-dimerization” (3M Innovative Properties Company, priority 1997, dated 2007).

One data set relates to Vibrio parahaemolyticus. The data set can be described thus: Use of fluorogenic protease substrate to detect Vibrio parahaemolyticus (cleavage by trypsin-like enzyme). Particulars: Vibrio parahaemolyticus cells, 1 mM EDTA, 50 mM phosphate buffer pH 7.2, incubated overnight; with vs without cells. The class given is cell-based. The procedure: Vibrio parahaemolyticus used in these experiments was a quality control strain for the Transport Swab System of Becton Dickinson Microbiology Systems (Cockeysville, Md.). It was purchased from American Tissue Culture Collection (ATCC accession no. 49398). Cells were grown at 37° C. in nutrient broth with 3 percent sodium chloride. Ten ml of overnight culture was centrifuged. Broth was disposed and 3 ml of assay buffer added (1 mM EDTA, 50 mM phosphate buffer at pH 7.2) containing 50 μl of dual labeled conjugate of formula I, 1000 dilution (see Example 1, procedure for making labeled peptide). To ensure complete cleavage the reaction mixture was incubated overnight. Fluorescence intensity of cuvettes with and without cells was measured, (tracings C and D, respectively).

Data set [1] can be described thus: Fluorescence of the intact dual-labeled conjugate versus singly labeled counterpart. The class given is physicochemical. From the text: SEQ ID NO. 1 Val-Pro-Arg-Gly-Lys was synthesized by GeneMed Biotechnologies (South San Francisco, Calif.) and purified on reverse phase high performance liquid chromatography (HPLC). Its chemical identity was confirmed by Fast Atom Bombardment (FAB) mass spectroscopy and amino acid analysis. The peptide was reacted overnight with tetramethylrhodamine succimidyl ester in 0.1M sodium bicarbonate, pH 8.3. The reaction mixture was purified on reversed phase HPLC (C-18 column, particle size 15 μm, Waters Corp., Milford, Mass.). All chemically reactive dyes were purchased from Molecular Probes, Eugene, Oreg. The dye-peptide conjugate had the chemical structure of SEQ ID NO. 2 TMR-Val-Pro-Arg-Gly-Lys-TMR (designated T-VPRGK-T in FIG. 2) as shown in Formula I, below. A composite gradient of acetonitrile (ACN) in water was used to purify this conjugate. In a typical elution, the acetonitrile content was increased from 15% to 30% during the initial 15 minutes, followed by a 10-minute isocratic elution at 30% ACN, a 5-minute gradient to 50%, then 5-minute isocratic elution at 50% ACN. All solvents contained 0.1% trifluoroacetic acid. The molecular weight of the purified conjugate, determined by FAB mass spectroscopy, was 1379 which was the calculated molecular mass based on the elemental composition of C74H85N13O14.

With “TMR-Val-Pro-Arg-Gly-Lys-TMR (XPRGX; not fully specified; TMR dye at both ends) [T-VPRGK-T]”, the “change in fluorescence on cleavage by the trypsin-like enzyme” value in the data set on Vibrio parahaemolyticus is reported as “increase in fluorescence”. For the same substance, in data set [1], the “fluorescence of dual-labeled conjugate versus singly labeled counterpart” value is on record as “substantially lower fluorescence than its singly labeled counterpart”.
